Test results as given in BindingDB's records for doi:10.1111/cbdd.12016 (Peking University Health Science Center, 2012).

Molecular target: Beta-secretase 1 (Homo sapiens, UniProt P56817)
Experiment: Fluorescence Resonance Energy Transfer (FRET) Assay
Description: BACE1 inhibitory evaluation was carried out using a Fluorescence Resonance Energy Transfer (FRET) assay kit supplied by PanVera (kit P2985, Madison, WI, USA).

Beta-secretase 1, sequence (P56817 whole entry): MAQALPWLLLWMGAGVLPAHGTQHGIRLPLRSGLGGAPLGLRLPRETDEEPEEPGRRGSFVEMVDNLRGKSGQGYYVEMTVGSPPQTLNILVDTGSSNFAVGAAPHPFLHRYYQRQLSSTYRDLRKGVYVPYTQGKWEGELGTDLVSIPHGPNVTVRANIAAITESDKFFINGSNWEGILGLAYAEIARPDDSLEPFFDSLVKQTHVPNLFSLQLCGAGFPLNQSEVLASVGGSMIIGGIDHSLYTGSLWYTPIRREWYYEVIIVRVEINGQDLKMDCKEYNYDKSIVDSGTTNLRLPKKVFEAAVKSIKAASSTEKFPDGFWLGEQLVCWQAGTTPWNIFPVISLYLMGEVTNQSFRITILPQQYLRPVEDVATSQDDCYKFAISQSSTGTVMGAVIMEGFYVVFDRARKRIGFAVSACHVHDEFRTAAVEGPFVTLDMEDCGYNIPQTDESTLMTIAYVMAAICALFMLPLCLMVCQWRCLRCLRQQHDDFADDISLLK

IC50 | Compound
8.02 µM | CCCOc1cccc(-c2cc(Oc3ccccc3)cc(C(=N)N)c2)c1 [Benzimidamide, 6a]
7.03 µM | CCCCOc1cccc(-c2cc(Oc3ccccc3)cc(C(=N)N)c2)c1 [Benzimidamide, 6b]
4.36 µM | CCCOc1cccc(-c2cc(Oc3ccccc3F)cc(C(=N)N)c2)c1 [Benzimidamide, 6c]
3.35 µM | CCCCOc1cccc(-c2cc(Oc3ccccc3F)cc(C(=N)N)c2)c1 [Benzimidamide, 6d]
80.3 µM | CCCOc1cccc(-c2cc(C#N)cc(Oc3ccccc3F)c2)c1 [Benzonitrile, 5c]
9.35 µM | CCCCOc1cccc(-c2cc(C#N)cc(Oc3ccccc3F)c2)c1 [Benzonitrile, 5d]
